Test results from patent publication US7759350B2, “Pyrimidine carboxamides” (Orchid Research Laboratories Ltd., priority 2005, dated 2010).

How the values were obtained:
[1] = target: T1, purified recombinant COX-2 enzyme (Homo sapiens, UniProt P35354); test: COX-2 enzyme based assay; type: biochemical; settings: Conc. 10 μM
T1 sequence (P35354 18-604): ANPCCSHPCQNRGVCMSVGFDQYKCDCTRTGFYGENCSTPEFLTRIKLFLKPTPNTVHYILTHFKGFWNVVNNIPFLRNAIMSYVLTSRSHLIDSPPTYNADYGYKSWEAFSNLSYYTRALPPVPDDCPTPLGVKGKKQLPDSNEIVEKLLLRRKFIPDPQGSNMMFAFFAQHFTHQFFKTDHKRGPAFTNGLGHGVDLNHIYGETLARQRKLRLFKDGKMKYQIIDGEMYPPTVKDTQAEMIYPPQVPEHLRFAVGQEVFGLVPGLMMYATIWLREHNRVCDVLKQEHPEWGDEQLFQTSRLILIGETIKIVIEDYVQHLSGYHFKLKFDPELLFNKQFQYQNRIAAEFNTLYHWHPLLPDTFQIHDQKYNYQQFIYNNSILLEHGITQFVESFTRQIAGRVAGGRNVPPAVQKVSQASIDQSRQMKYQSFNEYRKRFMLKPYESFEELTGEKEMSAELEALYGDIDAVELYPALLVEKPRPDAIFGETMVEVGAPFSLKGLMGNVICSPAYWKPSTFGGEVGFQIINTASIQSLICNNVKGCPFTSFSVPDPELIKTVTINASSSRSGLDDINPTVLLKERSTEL
Protocol: COX-1 and COX-2 Enzyme Based Assay
COX-2 enzyme based assays were carried out to check the inhibitory potential of test compounds on the production of prostaglandin by purified recombinant COX-1/COX-2 enzyme (Proc. Nat. Acad. Sci. USA, 88, 2692-2696, 1991; Clin. Immunoassay 15, 116-120, 1992) In this assay, the potential of the test compound to inhibit the production of prostaglandin either by COX-1 or COX-2 from arachidonic acid (substrate) was measured. This was an enzyme based in-vitro assay to evaluate selective COX inhibition with good reproducibility.
Arachidonic acid was converted to PGH2 (Intermediate product) by COX1/COX-2 in presence or absence of the test compound. The reaction was carried out at 37° C. and after 2 minutes it was stopped by adding 1M HCl. Intermediate products PGH2 was converted to a stable Prostanoid product PGF2α by SnCl2 reduction. The amount of PGF2α produced in the reaction was inversely proportional to the COX inhibitory potential of the test compound. The prostanoid product was quantified via enzyme immunoassay (EIA) using a broadly specific antibody that binds to all the major forms of Prostaglandin, using Cayman ELISA kit as per the procedure outlined by the manufacturer Cayman Chemicals, Ann Arbor, USA).

TNF-α = test: LPS induced sepsis for measurement of TNF-α inhibition in mice; type: in vivo; settings: 50 mg/kg bw oral; female Swiss albino mice; serum 90 minutes after LPS
Protocol: LPS Induced Sepsis for Measurement of TNF-α Inhibition in Mice
The LPS induced sepsis model in mice was performed as described by Les sekut et al (J Lab Clin Med 1994; 124:813-20). Female Swiss albino mice were selected with their body weights being equivalent within each group. The mice were fasted for 20 hours with free access to water. The mice were dosed orally with the test compound suspended in vehicle containing 0.5% Tween 80 in 0.25% Carboxy-methylcellulose sodium salt. The control mice were administered the vehicle alone. After 30 minutes of oral dosing, the mice were injected with 500 μg of Lipopolysaccharide (Escherichia coli, LPS: B4 from Sigma) in phosphate buffer saline solution into the intraperitoneal cavity of the mice. After 90 minutes of LPS administration, the mice were bled via retro-orbital sinus puncture. Blood samples were stored overnight at 4° C. Serum samples were collected by centrifuging the samples at 4000 rpm for 15 minutes at 4° C. Immediately the serum samples were analysed for TNF-α levels, using commercially available mouse TNF-α ELISA kit (Amersham Biosciences) and assay was performed by the manufacturer instruction.

Structure (SMILES): CNc1nc(-c2ccncc2)nc(SC)c1C(=O)Nc1ccc(OC)cc1 [Example 14, N-(4-Methoxyphenyl)-4-(methylamino)-6-(methylthio)-2-pyridin-4-ylpyrimidine-5-carboxamide]
- inhibition at 10 µM [1]: 11.4%
- TNF-α Inhibition (%) at 50 mg/kg bw (TNF-α): 18.74%
